Data as given in patent US9333202B2, “Non-retinoid antagonists for treatment of age-related macular degeneration and stargardt disease” (THE TRUSTEES OF COLUMBIA UNIVERSITY IN THE CITY OF NEW YORK, priority 2012, dated 2016).

Biological target: RBP4-TTR interaction (Homo sapiens, UniProt P02753)
Assay: HTRF/TR-FRET assay for retinol-dependent RBP4-TTR interaction (1 μM retinol)
Assay type: biochemical
Design: human RBP4 fragment (amino acids 19-201) was expressed in the Gold(DE3)pLysS E. coli strain; made in house; host or cells: E. coli Gold(DE3)pLysS (Stratagene), pMAL-c4x vector
Text: Bacterially expressed MBP-RBP4 and untagged TTR were used in this assay. For the use in the TR-FRET assay the maltose binding protein (MBP)-tagged human RBP4 fragment (amino acids 19-201) was expressed in the Gold(DE3)pLysS E. coli strain (Stratagene) using the […] vector. Following cell lysis, recombinant RBP4 was purified from the soluble fraction using the ACTA FPLC system (GE Healthcare) equipped with the 5-ml the MBP Trap HP column. Human untagged TTR was purchased from Calbiochem. Untagged TTR was labeled directly with Eu^3+ Cryptate-NHS using the HTRF Cryptate Labeling kit from CisBio following the manufacturer's recommendations. HTRF assay was performed in white low volume 384 well plates (Greiner-Bio) in a final assay volume of 16 μl per well. The reaction buffer contained 10 mM Tris-HCl pH 7.5, 1 mM DTT, 0.05% NP-40, 0.05% Prionex, 6% glycerol, and 400 mM KF. Each reaction contained 60 nM MBP-RBP4 and 2 nM TTR-Eu along with 26.7 nM of anti-MBP antibody conjugated with d2 (Cisbio). Titration of test compounds in this assay was conducted in the presence of 1 μM retinol. All reactions were assembled in the dark under dim red light and incubated overnight at +4° C. wrapped in aluminum foil. TR-FRET signal was measured in the SpectraMax M5e Multimode Plate Reader (Molecular Device). Fluorescence was excited at 337 nm and two readings per well were taken: Reading 1 for time-gated energy transfer from Eu(K) to d2 (337 nm excitation, 668 nm emission, counting delay 75 microseconds, counting window 100 microseconds) and Reading 2 for Eu(K) time-gated fluorescence (337 nm excitation, 620 nm emission, counting delay 400 microseconds, counting window 400 microseconds). The TR-FRET signal was expressed as the ratio of fluorescence intensity: Flu665/Flu620×10,000.

Row | Compound | Antagonism of RBP4-TTR interaction in vitro (in words)
1 | FC(F)(F)c1cccc(CCN2CCN(c3ncccc3C(F)(F)F)CC2)c1 [Compound 17] | antagonize RBP4-TTR interaction in vitro at biologically significant concentrations
2 | FC(F)(F)c1cccc(CCN2CCN(c3ncnc4sc5c(c34)CCC5)CC2)c1 [Compound 20] | antagonize RBP4-TTR interaction in vitro at biologically significant concentrations
3 | FC(F)(F)c1cccc(CN2CCN(c3ncnc4sc5c(c34)CCC5)CC2)c1 [Compound 21] | antagonize RBP4-TTR interaction in vitro at biologically significant concentrations
4 | O=C(Cc1ccccc1C(F)(F)F)N1CCN(c2ncnc3sc4c(c23)CCC4)CC1 [Compound 22] | antagonize RBP4-TTR interaction in vitro at biologically significant concentrations
5 | O=C(c1ccc(C(F)(F)F)cc1F)N1CCC(c2ccccc2C(F)(F)F)CC1 [Compound 32] | antagonize RBP4-TTR interaction in vitro at biologically significant concentrations
6 | O=C(c1ccc(C(F)(F)F)c(F)c1)N1CCC(c2ccccc2C(F)(F)F)CC1 [Compound 33] | antagonize RBP4-TTR interaction in vitro at biologically significant concentrations
7 | O=C(c1cccc(C(F)(F)F)c1)N1CCC(c2ccccc2C(F)(F)F)CC1 [Compound 34] | antagonize RBP4-TTR interaction in vitro at biologically significant concentrations
8 | O=C(c1ccc(F)c(C(F)(F)F)c1)N1CCC(c2ccccc2C(F)(F)F)CC1 [Compound 35] | antagonize RBP4-TTR interaction in vitro at biologically significant concentrations
9 | O=C(c1ccc(Cl)c(C(F)(F)F)c1)N1CCC(c2ccccc2C(F)(F)F)CC1 [Compound 36] | antagonize RBP4-TTR interaction in vitro at biologically significant concentrations
10 | COC(=O)c1cccc(C(=O)N2CCC(c3ccccc3C(F)(F)F)CC2)c1 [Compound 37] | antagonize RBP4-TTR interaction in vitro at biologically significant concentrations
11 | O=C(Cc1ccccc1C(F)(F)F)N1CCC(c2ccccc2C(F)(F)F)CC1 [Compound 38] | antagonize RBP4-TTR interaction in vitro at biologically significant concentrations
12 | O=C(c1ccnc(C(F)(F)F)c1)N1CCC(c2ccccc2C(F)(F)F)CC1 [Compound 39] | antagonize RBP4-TTR interaction in vitro at biologically significant concentrations
13 | O=C(c1cnccc1C(F)(F)F)N1CCC(c2ccccc2C(F)(F)F)CC1 [Compound 40] | antagonize RBP4-TTR interaction in vitro at biologically significant concentrations
14 | O=C(c1cc(C(F)(F)F)ccn1)N1CCC(c2ccccc2C(F)(F)F)CC1 [Compound 41] | antagonize RBP4-TTR interaction in vitro at biologically significant concentrations
15 | FC(F)(F)c1ccccc1C1CCN(c2ncccn2)CC1 [Compound 42] | antagonize RBP4-TTR interaction in vitro at biologically significant concentrations
16 | Cc1ccnc(N2CCC(c3ccccc3C(F)(F)F)CC2)n1 [Compound 43] | antagonize RBP4-TTR interaction in vitro at biologically significant concentrations
17 | FC(F)(F)c1ccnc(N2CCC(c3ccccc3C(F)(F)F)CC2)n1 [Compound 44] | antagonize RBP4-TTR interaction in vitro at biologically significant concentrations

Row | Compound | Antagonism of RBP4-TTR interaction in vitro (in words)
18 | COC(=O)c1cc(C)nc(N2CCC(c3ccccc3C(F)(F)F)CC2)n1 [Compound 45] | antagonize RBP4-TTR interaction in vitro at biologically significant concentrations
19 | FC(F)(F)c1ccccc1C1CCN(c2nccc(-c3ccccc3)n2)CC1 [Compound 46] | antagonize RBP4-TTR interaction in vitro at biologically significant concentrations
20 | Fc1cnc(N2CCC(c3ccccc3C(F)(F)F)CC2)nc1 [Compound 47] | antagonize RBP4-TTR interaction in vitro at biologically significant concentrations
21 | Cn1cnc(C(=O)N2CCC(c3ccccc3C(F)(F)F)CC2)c1 [Compound 49] | antagonize RBP4-TTR interaction in vitro at biologically significant concentrations
22 | O=C(c1cn(Cc2ccccc2)cn1)N1CCC(c2ccccc2C(F)(F)F)CC1 [Compound 50] | antagonize RBP4-TTR interaction in vitro at biologically significant concentrations
23 | Cn1cncc1C(=O)N1CCC(c2ccccc2C(F)(F)F)CC1 [Compound 51] | antagonize RBP4-TTR interaction in vitro at biologically significant concentrations
24 | Cn1nc(C(F)(F)F)cc1C(=O)N1CCC(c2ccccc2C(F)(F)F)CC1 [Compound 52] | antagonize RBP4-TTR interaction in vitro at biologically significant concentrations
25 | O=C(c1cc(C(F)(F)F)[nH]n1)N1CCC(c2ccccc2C(F)(F)F)CC1 [Compound 53] | antagonize RBP4-TTR interaction in vitro at biologically significant concentrations
26 | O=C(c1nccs1)N1CCC(c2ccccc2C(F)(F)F)CC1 [Compound 54] | antagonize RBP4-TTR interaction in vitro at biologically significant concentrations
27 | O=C(c1ccco1)N1CCC(c2ccccc2C(F)(F)F)CC1 [Compound 55] | antagonize RBP4-TTR interaction in vitro at biologically significant concentrations
28 | O=C(O)c1cc(-c2ccccc2)ccc1NC(=O)N1CCC(c2ccccc2C(F)(F)F)CC1 [Compound 56] | antagonize RBP4-TTR interaction in vitro at biologically significant concentrations
29 | O=C(O)c1cc(-c2ccc(F)cc2)ccc1NC(=O)N1CCC(c2ccccc2C(F)(F)F)CC1 [Compound 57] | antagonize RBP4-TTR interaction in vitro at biologically significant concentrations
30 | CS(=O)(=O)c1ccc(-c2ccc(NC(=O)N3CCC(c4ccccc4C(F)(F)F)CC3)c(C(=O)O)c2)cc1 [Compound 58] | antagonize RBP4-TTR interaction in vitro at biologically significant concentrations
31 | COC(=O)c1ccccc1NC(=O)N1CCC(c2ccccc2C(F)(F)F)CC1 [Compound 59] | antagonize RBP4-TTR interaction in vitro at biologically significant concentrations
32 | COC(=O)c1ccc(Cl)cc1NC(=O)N1CCC(c2ccccc2C(F)(F)F)CC1 [Compound 60] | antagonize RBP4-TTR interaction in vitro at biologically significant concentrations
33 | COC(=O)c1cc(Br)ccc1NC(=O)N1CCC(c2ccccc2C(F)(F)F)CC1 [Compound 61] | antagonize RBP4-TTR interaction in vitro at biologically significant concentrations
34 | O=C(O)c1ccccc1NC(=O)N1CCN(c2ncncc2C(F)(F)F)CC1 [Compound 63] | antagonize RBP4-TTR interaction in vitro at biologically significant concentrations
